In experiment [1] the test system is FGF-2 and IGF-1. The experiment in a line: ELISA assays for expression of angiogenesis factors in HeLa cells. The following applies: Homo sapiens, read-out: EC50 for inhibition of all these cytokines. Type of experiment: cell-based. The protocol:
Compounds that target multiple angiogenesis factors (including VEGF) for the treatment of cancers are also identifiable. Several targets are used for these purposes, including TNF-α, FGF-2, G-CSF, IGF-1, PDGF, and HIF-1α. ELISA assays analyze levels of expression of these factors using commercially available kits from R&D Systems (Minneapolis, Minn.). UTR-specific HTS identified compounds are tested for their ability to inhibit the expression of a subset of these proteins, including FGF-2 and IGF-1 in HeLa cells.

Experiment [2] relates to VEGF UTRs. The experiment in a line: luciferase reporter inhibition in B9 (VEGF 5' and 3' UTRs) versus B12 (control UTRs) stable cell lines. Type of experiment: cell-based, human. The following applies: about 10^-1 nM to about 10^4 nM. As for the experimental part: A monocistronic reporter construct (pLuc/vegf5′+3′UTR) is under the transcriptional control of the CMV promoter and contains the VEGF 5′ UTR driving the luciferase reporter upstream of the VEGF 3′UTR. Stable cell lines are generated by transfecting 293 cells with the pLuc/vegf5′+3′UTR construct. A stable cell line is cultured under hygromycin B selection to create clonal cell lines consistent with protocols well known in the art. After two weeks of selection, clonal cell lines are screened for luciferase activity. The luciferase activity of several clonal cell lines (hereafter “Clones”) are compared and normalized against total protein content. Clones are maintained under hygromycin B selection for more than three months with intermittent monitoring of luciferase activity. Clones are stable and maintain a high level of luciferase expression. Many Clones, for example, about twenty, may be compared to each other with respect to luciferase activity. […] Particular parameters for Clones are studied prior to selection for use in post-transcriptional, high-throughput screening (HTS). […]
Chemical libraries in excess of 150,000 compounds are screened by HTS with a Clone containing the monocistronic reporter construct, pLuc/vegf5′+3′UTR. […] Data is analyzed as a normal distribution, which is apparent from graphical and statistical analysis of skewness and kurtosis. […]

The term EC50 denotes the concentration at which the effect is half-maximal. Turning to `COc1ccc(C[C@H](N)C(=O)N[C@H]2[C@@H](O)[C@H](n3cnc4c(N(C)C)ncnc43)O[C@@H]2CO)cc1` [puromycin], the EC50 in experiment [1] lay within 200 to 2000 nM. For the same compound, the “difference in inhibition of luciferase expression between B9 and B12 cell lines” value in experiment [2] is on record as “No difference”.

Source of the values: patent US9476870B2, “Methods and agents for screening for compounds capable of modulating gene expression” (PTC Therapeutics, Inc., priority 2003, dated 2016).
